Read-outs that look alike come from different tables or passages of the source.
How the values were obtained:
[1] = test system: adult female B. pahangi worms; test: Adult in vitro Brugia pahangi motility assay (Worminator); type: cell-based; settings: for Inhibition of Motility (%) Day 1 / Inhibition of Motility (%) Day 2 / Inhibition of Motility (%) Day 3 / Inhibition of Motility (%) Day 6: female B. pahangi, n = 4 worms; for IC50: adult female Brugia pahangi, worminator motility assay, six-point serial dilution
Method: Adult in vitro Brugia pahangi assay: Adult female B. pahangi worms were kindly provided by Dr. Brenda Beerntsen, University of Missouri, Columbia, MO. Individual female worms were assayed in 500 μL of culture medium (RPMI-1640 with 25 mM HEPES, 2.0 g/L NaHCO3, 5% heat-inactivated FBS and antibiotic/antimycotic solution) in 24-well plates. Worms treated with 1% DMSO served as negative control and there were four replicates per compound. Worms were maintained at 37 °C in a 5% CO2 incubator for the duration of the assay. Individual worm movement was assessed from day 1–6 using the Worminator [55], which reports worm motility as mean movement units (MMU), a measure of pixels displaced. MMUs are then used to calculate percent inhibition of worm motility compared to control worms.

[2] = test system: T. b. gambiense (ITMAP/1893); test: Anti-trypanosomal activity, T. b. gambiense trypomastigotes (resazurin); type: cell-based, Trypanosoma brucei gambiense; settings: 72 h, read-out: T. b. gambiense IC50 (µM) ± SD
Method: Anti-trypanosomal activity: T. b. brucei Squib-427 strain (suramin-sensitive) and T. b. gambiense (ITMAP/1893) were cultured at 37 °C and 5% CO2 in HMI-9 medium supplemented with 10% FCS [90]. About 10^4 trypomastigotes/well were added to each well and parasite growth was assessed after 72 h at 37 °C by adding resazurin and reading at ex 550 nm, em 590 nm. Suramin was included as reference drug for T. b. brucei and pentamidine for T. b. gambiense.

[3] = test system: BL3 cells; test: Proliferation test on non-infected BL3 cells; type: cell-based, bovine; settings: […] and 0.5 μM
Method: Theileria annulata culture: The TBL3 cell line was derived by in vitro infection of the spontaneous bovine B-lymphosarcoma cell line BL3 with the Hissar stock of T. annulata. B cell characteristics of the lines have been described. The cells are maintained at 37 °C under 5% CO2, in RPMI medium supplemented with 10% FCS, 25 mM Hepes, 4 mM L-glutamine, 100 μg/mL of streptomycin, 100 IU/mL of penicillin and […] 2-mercapthoethanol.
Cells were cultured in 12-well plates at an initial density of 200,000 cells per well in duplicate for each condition. […] The cells were cultured in 12-well plates at an initial density of 200,000 cells per well and drug was added every 24 h. To be able to compare the results, a drug-free control was also performed. Cell counting was done at 24, 72 and 96 h using the trypan blue method.

[4] = test system: Human TrxR; settings: 3.7 nM enzyme, 3 mM DTNB; after 10 min preincubation; read-out: IC50 Human TrxR, substrate DTNB; cited from earlier work
[5] = test system: O. ochengi adult male; test: Onchocerca ochengi adult male worm motility assay; type: cell-based; settings: 10 μM
Method: Onchocerca ochengi adult worm assays: For O. ochengi worm assays, subcutaneous nodules containing adult O. ochengi worms were removed from the hides of infected cows collected at abattoirs in Douala, Cameroon. Masses were incubated in 4 mL of complete culture medium (RPMI-1640, 5% newborn calf serum, 200 units/mL penicillin, 200 μg/mL streptomycin and 2.5 μg/mL amphotericin B) in standard 12-well culture plates and maintained in a 37 °C, 5% CO2 incubator overnight during which time the adult males migrated out of the masses while the females remained in the nodules. Compound and control wells (worms in 1% DMSO) were tested in quadruplicate and experiments were repeated twice on different days. Cultures were terminated on day 7. […] Adult female worm viability was assessed on day 7 by the standard MTT/formazan assay in which each nodular mass was placed in a well of a 48-well plate containing 500 μL of 0.5 mg/mL MTT (Sigma-Aldrich) in culture medium. Viability was evaluated visually by the extent to which the female worm mass was stained with MTT. Mean percent inhibition of formazan formation was calculated relative to the negative control worm masses after 7 days in culture.

[6] = test system: Leishmania donovani LV9 intramacrophage amastigotes; test: L. donovani LV9 intramacrophage amastigotes; type: cell-based; settings: read-out: Leishmania Donovani LV9 Intramacrophage Amastigotes IC50 (µm) ± SD
Method: In vitro anti-leishmanial evaluation was perfomed on both axenic and intramacrophage L. donovani amastigotes as previously described. […] Briefly, compounds were distributed in 96-well plates using 2-fold dilutions in 100 µL PYG medium. A. castellanii trophozoites were added to each well at 5 × 10^4 amoeba/mL in 200 µL final volume. L. donovani axenic amastigotes were added to each well at 10^6 parasites/mL in 200 µL final volume. After 72 h incubation at 27 °C, 20 µL of 1 mM resazurin was added to each well and further incubated at 27 °C for 8 h for A. castellanii and for 24 h for L. donovani axenic amastigotes. In living cells, resazurin is reduced in resorufin. This conversion is monitored by measuring the absorbance at specific wavelengths of resorufin (570 nm) and resazurin (600 nm) using a microplate reader (Labsystems Multiskan MS, McLean, VA, USA). In this assay, the activity was expressed in IC50. Miltefosine and pentamidine were used as reference drugs. All experiments were performed in three independent experiments.

[7] = test system: primary mouse macrophages (PMM); test: in vitro
Method: Toxicity in human fetal lung fibroblast (MRC-5) cell line and primary mouse macrophages (PMM) was assessed using a previously reported assay in 96-well microtiter plates. Tamoxifen and miltefosine were included as reference drugs (Table 10).
For MRC5SV2 or PMM cells, the assays were performed in 96-well microtiter plates, each well containing 10 µL of compound dilution and 190 µL of cell inoculum (3 × 10^4 cells/mL) as reported. Cell growth was compared to untreated controls (100% growth) and assay-media controls (0% growth). After three-day incubation, cell viability was assessed fluorometrically by adding resazurin [50 µL/well of a stock solution in phosphate buffer (50 µg/mL)], incubating for 4 h and measuring fluorescence (ex 550 nm, em 590 nm). The results are expressed as percentage reduction in cell growth as compared to untreated control wells. […] Tamoxifen was included as the reference drug.

## CC(=O)OCC1OC([S][Au][PH]2(c3ccccc3)C(c3ccccn3)=CC=C2c2ccccn2)C(OC(C)=O)C(OC(C)=O)C1OC(C)=O [GoPI-sugar, 1-thio-β-D-glucopyranose 2,3,4,6-tetraacetato-S-Au{1-phenyl-2,5-di(2-pyridyl)phosphole}]
[1]; 1 μM
  Inhibition of Motility (%) Day 1: 20%
  Inhibition of Motility (%) Day 2: 16%
  Inhibition of Motility (%) Day 3: 22%
  Inhibition of Motility (%) Day 6: 48%
[1]; 3 μM
  Inhibition of Motility (%) Day 1: 24%
  Inhibition of Motility (%) Day 2: 41%
  Inhibition of Motility (%) Day 3: 40%
  Inhibition of Motility (%) Day 6: 96%
[1]; 10 μM
  Inhibition of Motility (%) Day 1: 91%
  Inhibition of Motility (%) Day 2: 98%
  Inhibition of Motility (%) Day 3: 100%
  Inhibition of Motility (%) Day 6: 99%
[1]; read-out: IC50 (µM) Day 2
  IC50: 2.8 µM
[1]; read-out: IC50 (µM) Day 3
  IC50: 3.9 µM
[1]; read-out: IC50 (µM) Day 6
  IC50: 1.7 µM
[2]
  IC50: 1.11 ± 0.12 µM
[3]
  proliferation of BL3 compared to untreated BL3 cells: dampened
[4]
  IC50: 0.49 ± 0.04 nM
[5]
  % Inhibition of Motility O. ochengi Adult Male Day 5: 100%
[6]
  IC50: 420 ± 150 nM
[7]
  CC50: 8 µM

Reference: paper PMC7663263 (Molecules, 2020)
